Test results from PMC6024778 (Viruses, 2018).

Tested on: rMERS-CoV-S2
Format: cell-based, MERS-CoV

Structure (SMILES): CN1CCN(CCOc2cc(OC3CCOCC3)c3c(Nc4c(Cl)ccc5c4OCO5)ncnc3c2)CC1 [Saracatinib]
- EC50: 9 µM
